The source of these data is patent publication US20260108527A1, “POLO LIKE KINASE 4 INHIBITORS” (ORIC Pharmaceuticals, Inc., priority 2022, published 2026).

For orientation: IC50 means the concentration that gives 50% inhibition. Higher therefore signals lower potency.

One assay concerns CHP134. Nature of the assay: CHP134 CellTiter-Glo (CTG) Assay. In kind it is cell-based. The following applies: Homo sapiens, CHP-134, 120 h; viable cells by CellTiter-Glo after 5 days. The method, boiled down: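 CHP134 cells were seeded at 200 cells/well for 16 h, then treated in quadruplicate with nine-point 1:3 serial dilutions at 37 °C, 5% CO2. Viable cells were read by CellTiter-Glo luminescence after 5 days, and IC50 values were derived from the dose-response curves.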
On the technique in general: Cellular ATP, detected with luciferase, serves as a proxy for viable cell number.

Assay [1] concerns the target T1, human recombinant Aurora A (Homo sapiens, UniProt O14965).
T1 construct: purchased ThermoFisher PR5935A
T1 sequence (O14965 1-403): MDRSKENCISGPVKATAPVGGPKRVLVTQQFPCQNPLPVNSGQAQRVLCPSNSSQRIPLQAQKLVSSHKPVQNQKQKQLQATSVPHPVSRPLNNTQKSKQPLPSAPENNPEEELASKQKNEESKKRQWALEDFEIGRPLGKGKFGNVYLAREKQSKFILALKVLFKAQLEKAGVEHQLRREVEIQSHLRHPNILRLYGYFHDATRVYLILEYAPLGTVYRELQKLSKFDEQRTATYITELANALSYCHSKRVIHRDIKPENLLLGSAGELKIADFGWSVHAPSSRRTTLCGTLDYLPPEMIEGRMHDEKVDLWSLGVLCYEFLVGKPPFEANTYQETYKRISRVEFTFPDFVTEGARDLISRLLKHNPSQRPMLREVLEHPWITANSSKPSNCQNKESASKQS
Nature of the assay: Aurora A Kinase Biochemical Assay (ADP-Glo). The following applies: selectivity ratio; Aurora A 2.5 nM, 20 μM ATP. The method, boiled down: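 Human recombinant Aurora A at 2.5 nM final was preincubated with compound (11-point, 3-fold titration) for 15 min at RT, then reacted with 20 μM ATP and 4.7 μM MBP for 2 h at RT in HEPES pH 7.5 buffer. ADP formed was read by ADP-Glo luminescence; IC50 from four-parameter fit.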

For the compound `CCOc1cnc(-c2nccs2)nc1Nc1n[nH]c2cc([C@@H]3C[C@@]34C(=O)Nc3ccc(OC)cc34)ccc12` [Example 44, (1R,2S)-2-(3-{[5-ethoxy-2-(1,3-thiazol-2-yl)pyrimidin-4-yl]amino}-1H-indazol-6-yl)-5′-methoxyspiro[cyclopropane-1,3′-indol]-2′(1′H)-one], in the assay with CHP134, it took 22 nM to reach half-maximal inhibition (IC50). Further, the “[Aurora A IC50 (nM)]/[PLK4 IC50 (nM)]” value in assay [1] stood at 702.5.
Turning to `CCOc1cc(S(C)(=O)=O)ccc1Nc1n[nH]c2cc([C@@H]3C[C@@]34C(=O)N(C)c3ccc(OC)cc34)ccc12` [Example 23, (1R,2S)-2-{3-[2-ethoxy-4-(methanesulfonyl)anilino]-1H-indazol-6-yl}-5′-methoxy-1′-methylspiro[cyclopropane-1,3′-indol]-2′(1′H)-one], in the assay with CHP134, the IC50 was 111 nM. The “[Aurora A IC50 (nM)]/[PLK4 IC50 (nM)]” value in assay [1] amounted to 2258.3629.
Taken in the same sequence, the figures for `COc1ccc2c(c1)[C@]1(C[C@H]1c1ccc3c(Nc4cc(-c5cocn5)cnc4OC)n[nH]c3c1)C(=O)N2` [Example 42, (1R,2S)-5′-methoxy-2-(3-{[2-methoxy-5-(1,3-oxazol-4-yl)pyridin-3-yl]amino}-1H-indazol-6-yl)spiro[cyclopropane-1,3′-indol]-2′(1′H)-one] were 281 nM and 157.8304.
Compound `COc1ccc2c(c1)[C@]1(C[C@H]1c1ccc3c(Nc4cc(-c5nnn(C)n5)ccc4OC)n[nH]c3c1)C(=O)N2` [Example 21, (1R,2S)-5′-methoxy-2-{3-[2-methoxy-5-(2-methyl-2H-tetrazol-5-yl)anilino]-1H-indazol-6-yl}spiro[cyclopropane-1,3′-indol]-2′(1′H)-one] displayed an IC50 in the assay on CHP134 of 400 nM. For the same compound, the “[Aurora A IC50 (nM)]/[PLK4 IC50 (nM)]” value in assay [1] is 1900.
The matching figures for `COc1ccc2c(c1)[C@]1(C[C@H]1c1ccc3c(Nc4nc(-c5ncco5)ccc4OC)n[nH]c3c1)C(=O)N2` [Example 4, (1R,2S)-5′-methoxy-2-(3-{[3-methoxy-6-(1,3-oxazol-2-yl)pyridin-2-yl]amino}-1H-indazol-6-yl)spiro[cyclopropane-1,3′-indol]-2′(1′H)-one]: 53.1 nM and 538.2697.
The matching figures for `COc1ccc2c(c1)[C@]1(C[C@H]1c1ccc3c(Nc4cc(-c5cnn(C)c5)ncc4OC)n[nH]c3c1)C(=O)N2` [Example 27, (1R,2S)-5′-methoxy-2-(3-{[5-methoxy-2-(1-methyl-1H-pyrazol-4-yl)pyridin-4-yl]amino}-1H-indazol-6-yl)spiro[cyclopropane-1,3′-indol]-2′(1′H)-one]: 463 nM and 360.5487.
